Experimental data published in patent US9079913B2, “Spiro-oxindole MDM2 antagonists” (The Regents of the University of Michigan, priority 2009, dated 2015).
Read-outs that look alike come from different tables or passages of the source.

Tests used:
[1] = In vitro microsomal stability, rat; type: in vitro ADME; details: for microsomal stability (in words) / % of compound remaining when incubated in rat liver microsomes with NADPH: rat liver microsomes
[2] = Pharmacokinetic studies in rats; type: in vivo, rat; details: for oral bioavailability / oral pharmacokinetics in rats (in words): oral dosing
Method: Pharmacokinetic studies on MDM2 inhibitors were carried out in rat. For comparison, the MDM2 inhibitor, AT-219, was also studied.

[3] = target: recombinant human His-tagged MDM2 protein (residues 1-118) (Homo sapiens (Human), UniProt Q00987); assay: Fluorescence-polarization MDM2 binding assay; details: Table 19A; FP binding assay; read-out: MDM2 IC50;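 further: fluorescence polarization read after three hours of incubation in potassium phosphate buffer containing bovine gamma globulin and Triton X-100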
[4] = tested on: Isogenic HCT-116 colon cancer cell lines; assay: cells; type: cell-based; details: Homo sapiens, cell growth;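 further: cells grown in 96-well plates in McCoy's 5A medium with 10% FBS, exposed to compound for 4 days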
Method: Cells were seeded in 96-well flat bottom cell culture plates at a density of 2−3×10^3 cells/well with compounds and incubated for 4 days.

[5] = tested on: cancer cell lines with wild-type p53 / mutated or deleted p53 (ATCC); assay: Cell growth assay (WST-8), other cancer cell lines; type: cell-based; details: Homo sapiens
[6] = In vitro microsomal stability, human; type: in vitro ADME
[7] = HCT-116, read-out: HCT-116 (p53-/-) IC50, Table 19A, HCT-116 p53-/-
[8] = HCT-116, read-out: HCT-116 (p53 wild-type) IC50, Table 19A, HCT-116 p53 wild-type
[9] = LNCaP, Table 19A, LNCAP cells, p53 wild-type, cell growth, read-out: LNCAP (p53 wild-type) IC50
[10] = PC-3, Table 19A, PC-3 cells, deleted p53, cell growth, read-out: PC-3 (deleted p53) IC50
[11] = SJSA-1, Table 19A, SJSA-1 cells, p53 wild-type, cell growth, read-out: SJSA-1 (p53 wild-type) IC50

recombinant human His-tagged MDM2 protein (residues 1-118), sequence (Q00987 1-118): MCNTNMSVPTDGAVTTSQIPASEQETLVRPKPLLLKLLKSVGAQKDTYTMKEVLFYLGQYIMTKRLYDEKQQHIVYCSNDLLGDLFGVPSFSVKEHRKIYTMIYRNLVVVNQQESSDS

| Structure (SMILES) | IC50 [3] [nM] | IC50 [4, 7] [nM] | IC50 [4, 8] [nM] | IC50 [5, 9] [nM] | IC50 [5, 10] [nM] | IC50 [5, 11] [nM] | % of compound remaining when incubated in rat liver microsomes ([1]; Table 17, 0 min) [%] | % of compound remaining when incubated in rat liver microsomes ([1]; Table 17, 4 min) [%] | % of compound remaining when incubated in rat liver microsomes ([1]; Table 17, 6 min) [%] | % of compound remaining when incubated in rat liver microsomes ([1]; Table 17, 10 min) [%] | % of compound remaining when incubated in rat liver microsomes ([1]; Table 17, 15 min) [%] | % of compound remaining when incubated in rat liver microsomes ([1]; Table 17, 30 min) [%] | other results |
| --- | --- | --- | --- | --- | --- | --- | --- | --- | --- | --- | --- | --- | --- |
| CN1CCC(CCNC(=O)C2NC(CC(C)(C)C)C3(C(=O)Nc4cc(Cl)ccc43)C2c2cccc(Cl)c2F)CC1 (centres unmarked) [MI-122] | – | – | – | – | – | – | – | – | – | – | – | – | % of compound remaining when incubated in rat liver microsomes ([1]; Table 16, 0 min): 100%; % of compound remaining when incubated in rat liver microsomes ([1]; Table 16, 4 min): 96.3%; % of compound remaining when incubated in rat liver microsomes ([1]; Table 16, 6 min): 95.6%; % of compound remaining when incubated in rat liver microsomes ([1]; Table 16, 10 min): 87.8%; % of compound remaining when incubated in rat liver microsomes ([1]; Table 16, 15 min): 86.5%; % of compound remaining when incubated in rat liver microsomes ([1]; Table 16, 30 min): 82.7%; microsomal stability (in words) [1]: improved rat microsomal stability over MI-219; % F ([2]; male rats, oral dose 25 mg/kg): 14%; Cmax ([2]; male rats, oral dose 25 mg/kg): 120 ± 112 ng/mL; T1/2 ([2]; male rats, oral dose 25 mg/kg): 426 ± 108 min; oral bioavailability / oral pharmacokinetics in rats (in words) [2]: much inferior oral pharmacokinetic parameters |
| CN1CCN(CCNC(=O)C2NC(CC(C)(C)C)C3(C(=O)Nc4cc(Cl)ccc43)C2c2cccc(Cl)c2F)CC1 (centres unmarked) [MI-126] | – | – | – | – | – | – | – | – | – | – | – | – | % of compound remaining when incubated in rat liver microsomes ([1]; Table 16, 0 min): 100%; % of compound remaining when incubated in rat liver microsomes ([1]; Table 16, 4 min): 88.4%; % of compound remaining when incubated in rat liver microsomes ([1]; Table 16, 6 min): 77.2%; % of compound remaining when incubated in rat liver microsomes ([1]; Table 16, 10 min): 65.6%; % of compound remaining when incubated in rat liver microsomes ([1]; Table 16, 15 min): 62.3%; % of compound remaining when incubated in rat liver microsomes ([1]; Table 16, 30 min): 60.4%; microsomal stability (in words) [1]: improved rat microsomal stability over MI-219; % F ([2]; male rats, oral dose 25 mg/kg): 31%; Cmax ([2]; male rats, oral dose 25 mg/kg): 274 ± 82 ng/mL; T1/2 ([2]; male rats, oral dose 25 mg/kg): 228 ± 30 min; oral bioavailability / oral pharmacokinetics in rats (in words) [2]: much inferior oral pharmacokinetic parameters |
| CC(C)(C)C[C@H]1N[C@@H](C(=O)NCCC2CCC(O)C2)[C@H](c2cccc(Cl)c2)[C@@]12C(=O)Nc1cc(Cl)c(F)cc12 (some centres unmarked) [MI-225] | – | – | – | – | – | – | – | – | – | – | – | – | % of compound remaining when incubated in rat liver microsomes ([1]; Table 16, 0 min): 100%; % of compound remaining when incubated in rat liver microsomes ([1]; Table 16, 4 min): 63.1%; % of compound remaining when incubated in rat liver microsomes ([1]; Table 16, 6 min): 56.6%; % of compound remaining when incubated in rat liver microsomes ([1]; Table 16, 10 min): 44.4%; % of compound remaining when incubated in rat liver microsomes ([1]; Table 16, 15 min): 30.9%; % of compound remaining when incubated in rat liver microsomes ([1]; Table 16, 30 min): 30.2%; microsomal stability (in words) [1]: inferior microsomal stability to MI-219; % F ([2]; male rats, oral dose 25 mg/kg): 44%; AUC(0-t) ([2]; male rats, oral dose 25 mg/kg): 7207 ± 1492; Cmax ([2]; male rats, oral dose 25 mg/kg): 1913 ± 312 ng/mL; T1/2 ([2]; male rats, oral dose 25 mg/kg): 90.6 ± 7.2 min; oral bioavailability / oral pharmacokinetics in rats (in words) [2]: good oral bioavailability |
| CC(C)(C)C[C@H]1N[C@@H](C(=O)N[C@H]2CC[C@@H](O)C2)[C@H](c2cccc(Cl)c2)[C@@]12C(=O)Nc1cc(Cl)c(F)cc12 [MI-519-27] | < 1000 | > 10000 | < 2000 | < 2000 | > 5000 | < 3000 | – | – | – | – | – | – | % of compound remaining when incubated in rat liver microsomes with NADPH ([1]; 0 min): 100.00%; % of compound remaining when incubated in rat liver microsomes with NADPH ([1]; 5 min): 57.28%; % of compound remaining when incubated in rat liver microsomes with NADPH ([1]; 10 min): 31.78%; % of compound remaining when incubated in rat liver microsomes with NADPH ([1]; 15 min): 19.34%; % of compound remaining when incubated in rat liver microsomes with NADPH ([1]; 30 min): 5.81%; % of compound remaining when incubated in rat liver microsomes with NADPH ([1]; 45 min): 2.49%; % of compound remaining when incubated in rat liver microsomes with NADPH ([1]; 60 min): 2.13%; half-life ([1]; rat, liver microsomes, rat liver microsomes with NADPH): 6.05 min; % of compound remaining when incubated in human liver microsomes with NADPH ([6]; 0 min): 100.00%; % of compound remaining when incubated in human liver microsomes with NADPH ([6]; 5 min): 52.96%; % of compound remaining when incubated in human liver microsomes with NADPH ([6]; 10 min): 25.03%; % of compound remaining when incubated in human liver microsomes with NADPH ([6]; 15 min): 11.38%; % of compound remaining when incubated in human liver microsomes with NADPH ([6]; 30 min): 2.30%; % of compound remaining when incubated in human liver microsomes with NADPH ([6]; 45 min): 1.42%; % of compound remaining when incubated in human liver microsomes with NADPH ([6]; 60 min): 0.77%; half-life ([6]; human, liver microsomes, human liver microsomes with NADPH): 5 min |
| CC(C)N1CCN(CCCNC(=O)[C@@H]2N[C@H](CC(C)(C)C)[C@]3(C(=O)Nc4cc(Cl)ccc43)[C@H]2c2cccc(Cl)c2F)CC1 [MI-519-45] | < 10000 | 6900 ± 1900 | 900 ± 300 | 1000 ± 200 | 5100 ± 900 | 800 ± 200 | 100 | 81.1 | 59.6 | 50.7 | 44.3 | 38.5 | – |
| CN1CCN(CCCNC(=O)[C@@H]2N[C@H](CC(C)(C)C)[C@]3(C(=O)Nc4cc(Cl)ccc43)[C@H]2c2cccc(Cl)c2F)CC1 [MI-519-46] | < 1000 | 4300 ± 400 | 400 ± 100 | 500 ± 300 | 3700 ± 400 | 500 ± 300 | 100 | 83.8 | 70.9 | 53.9 | 53.4 | 38.3 | – |
| CC(C)(C)C[C@H]1N[C@@H](C(=O)NCCCN2CCN(C3CC3)CC2)[C@H](c2cccc(Cl)c2F)[C@@]12C(=O)Nc1cc(Cl)ccc12 [MI-519-47] | < 10000 | 7800 ± 900 | 1100 ± 200 | 1100 ± 300 | 5700 ± 600 | 1100 | 100 | 80.1 | 61.1 | 45.3 | 38.1 | 34.3 | – |
| CC(C)(C)C[C@H]1N[C@@H](C(=O)NCCN2CCNCC2)[C@H](c2cccc(Cl)c2)[C@@]12C(=O)Nc1cc(Cl)c(F)cc12 [MI-748] | < 1000 | 7600 ± 1000 | 900 ± 700 | 800 | 4100 ± 100 | – | 100 | 79.1 | 69.7 | 61.5 | 49.9 | 43.7 | – |
| CN1CCN(CCNC(=O)[C@@H]2N[C@H](CC(C)(C)C)[C@]3(C(=O)Nc4cc(Cl)c(F)cc43)[C@H]2c2cccc(Cl)c2)CC1 [MI-749] | < 1000 | 7800 ± 1300 | 1200 ± 400 | 1000 ± 100 | 5000 ± 500 | – | 100 | 82.9 | 58.4 | 54.2 | 42.7 | 23 | – |
| CN1CCN(CCCNC(=O)[C@@H]2N[C@H](CC(C)(C)C)[C@]3(C(=O)Nc4cc(Cl)c(F)cc43)[C@H]2c2cccc(Cl)c2)CC1 [MI-751] | < 1000 | 6200 ± 1200 | 1000 ± 200 | 700 ± 200 | 3900 ± 900 | – | 100 | 83.1 | 62.9 | 50.1 | 41.6 | 31.1 | – |
| CC(C)(C)C[C@H]1N[C@@H](C(=O)NCCCN2CCCC2)[C@H](c2cccc(Cl)c2F)[C@@]12C(=O)Nc1cc(Cl)c(F)cc12 [MI-764] | < 1000 | 3800 ± 700 | 500 ± 200 | 1000 ± 400 | 2400 ± 400 | 1200 ± 300 | 100 | 87.8 | 76.5 | 66.5 | 63.9 | 55.8 | – |
